What was measured:
[1] = target: T1, Serine/threonine-protein phosphatase 2A catalytic subunit beta isoform (Homo sapiens, UniProt P62714); assay: DARTS mass spectrometry of 293T lysate after ATG; assay type: binding
T1 construct: endogenous in cells; host or cells: 293T
Experimental: (§1) 293T cells were digested with M-PER mammalian protein extraction buffer (78501 ThermoFisher) and phosphatase inhibitor (50 mM NaF, 10 mM β-glycerophosphate, 5 mM sodium pyrophosphate, 2 mM Na3VO4); and the protein concentration is determined by Bradford method (500-0006 Bio-rad). ATG was either added or not in the cell lysate. If added, the concentration of ATG was 300 μM. The cells were incubated at room temperature for 1 h. The cells were then lysed by incubating for 20 minutes at room temperature with different concentrations of pronase at 1:1000 (10165921001, Roche). The two groups of lysates are subjected to mass spectrometry and then compared.
(§2) Furthermore, since the content of PP2A in cells is very low in the normal state, it is considered that the binding ratio of ATG and PP2A is high.

Tubulin beta-3 chain = target: T2, Tubulin beta-3 chain (Homo sapiens, UniProt Q13509); assay: DARTS mass spectrometry of 293T lysate after ATG; assay type: binding; conditions: ATG 300 μM, pronase 1:1000, TBB3_HUMAN
T2 construct: endogenous in cells; host or cells: 293T
T2 sequence (Q13509 whole entry): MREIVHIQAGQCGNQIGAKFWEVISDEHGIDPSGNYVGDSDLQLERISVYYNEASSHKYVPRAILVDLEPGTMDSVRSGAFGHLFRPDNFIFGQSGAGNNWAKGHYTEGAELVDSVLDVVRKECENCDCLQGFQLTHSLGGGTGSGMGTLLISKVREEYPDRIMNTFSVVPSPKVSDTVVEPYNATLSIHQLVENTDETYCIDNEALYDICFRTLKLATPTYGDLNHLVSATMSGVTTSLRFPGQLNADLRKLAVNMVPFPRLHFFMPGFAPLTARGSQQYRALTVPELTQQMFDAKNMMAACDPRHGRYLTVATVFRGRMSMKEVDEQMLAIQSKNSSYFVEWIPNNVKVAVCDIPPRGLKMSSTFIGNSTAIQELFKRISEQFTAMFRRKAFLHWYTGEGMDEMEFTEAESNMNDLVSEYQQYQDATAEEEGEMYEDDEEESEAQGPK
T2 sequence (P68363 whole entry partner): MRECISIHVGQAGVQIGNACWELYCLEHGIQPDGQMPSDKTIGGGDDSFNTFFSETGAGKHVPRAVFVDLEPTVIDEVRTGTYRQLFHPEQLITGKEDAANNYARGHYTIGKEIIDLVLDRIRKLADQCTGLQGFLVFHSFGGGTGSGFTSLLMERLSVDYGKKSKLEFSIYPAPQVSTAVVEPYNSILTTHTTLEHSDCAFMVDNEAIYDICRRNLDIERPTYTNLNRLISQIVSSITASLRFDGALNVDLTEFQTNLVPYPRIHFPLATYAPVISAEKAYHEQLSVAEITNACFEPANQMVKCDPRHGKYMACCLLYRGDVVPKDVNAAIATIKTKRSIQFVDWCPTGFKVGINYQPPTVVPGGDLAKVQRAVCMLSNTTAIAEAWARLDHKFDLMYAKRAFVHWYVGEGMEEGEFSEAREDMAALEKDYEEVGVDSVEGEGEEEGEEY
Experimental: as §1, §2

Tubulin beta-6 chain = target: T3, Tubulin beta-6 chain (Homo sapiens, UniProt Q9BUF5); assay: DARTS mass spectrometry of 293T lysate after ATG; assay type: binding; conditions: ATG 300 μM, pronase 1:1000, TBB6_HUMAN
T3 construct: endogenous in cells; host or cells: 293T
T3 sequence (Q9BUF5 whole entry): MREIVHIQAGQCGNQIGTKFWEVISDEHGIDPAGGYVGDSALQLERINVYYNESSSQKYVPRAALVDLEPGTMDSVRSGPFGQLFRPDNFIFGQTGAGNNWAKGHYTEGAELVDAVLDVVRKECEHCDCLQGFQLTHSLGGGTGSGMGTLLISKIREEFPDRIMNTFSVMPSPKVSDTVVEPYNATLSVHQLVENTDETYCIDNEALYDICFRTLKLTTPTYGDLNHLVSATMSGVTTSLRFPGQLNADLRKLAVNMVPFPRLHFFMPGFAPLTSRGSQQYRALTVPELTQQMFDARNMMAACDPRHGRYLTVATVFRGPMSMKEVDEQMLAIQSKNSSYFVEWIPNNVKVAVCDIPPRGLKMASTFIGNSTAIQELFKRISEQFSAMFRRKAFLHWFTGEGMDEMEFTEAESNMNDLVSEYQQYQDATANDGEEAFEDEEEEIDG
T3 sequence (P68363 whole entry partner): as the sequence (P68363 whole entry partner) above
Experimental: as §1, §2

[2] = target: T4, Keratin, type I cytoskeletal 17 (Homo sapiens, UniProt Q04695); assay: DARTS mass spectrometry of 293T lysate after ATG; assay type: binding; conditions: ATG 300 μM, pronase 1:1000, K1C17_HUMAN
T4 construct: endogenous in cells; host or cells: 293T
T4 sequence (Q04695 1-432): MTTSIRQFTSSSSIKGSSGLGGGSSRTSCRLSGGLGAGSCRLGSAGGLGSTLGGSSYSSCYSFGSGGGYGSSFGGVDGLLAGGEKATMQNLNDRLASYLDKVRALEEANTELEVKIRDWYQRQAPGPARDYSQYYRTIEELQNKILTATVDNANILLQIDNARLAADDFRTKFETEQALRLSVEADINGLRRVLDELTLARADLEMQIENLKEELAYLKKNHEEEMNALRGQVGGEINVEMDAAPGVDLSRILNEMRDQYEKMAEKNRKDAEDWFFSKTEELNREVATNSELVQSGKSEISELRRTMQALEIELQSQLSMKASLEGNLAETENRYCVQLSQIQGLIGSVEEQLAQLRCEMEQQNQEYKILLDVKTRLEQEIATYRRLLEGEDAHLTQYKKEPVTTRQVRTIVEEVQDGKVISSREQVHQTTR
Experimental: as §1

PP2A = PP2A activity in immortal podocytes (PP2A activity kit); assay type: cell-based; conditions: 1 hour
Experimental: Immortal podocytes were stimulated with ATG at concentrations of 0, 1.0 μm, 3.3 μm, and 10 μm, and the stimulation time was 1 hour. The activity of PP2A was detected by PP2A activity kit (R & D systems, DYC3309-2).

NOX4 = NOX4 protein expression in human immortal podocytes under high glucose (Western blot); assay type: cell-based; conditions: ATG 10 μmol/L
Text: The detection method of Western Blot and mRNA used in the present embodiment is a detection method commonly used by person skilled in the art, and the specific detection method is described in “Molecular Biology Laboratory Manual” (People's Military Medical Press, published in 2011 Jun. 1). 3.1 Western blot and Realtime PCR confirmed that ATG in human immortal podocytes can inhibit the overexpression of NOX4 caused by high glucose stimuli, see table 5 and FIG. 6. The expression of NOX4 in the total protein, membrane protein and mitochondrial protein of human immortal podocytes was detected in the experiment. […] The meanings of the symbols in FIG. 6 are as follows: HG: high glucose (glucose […]); T: total protein; Tmeb cell membrane protein; Mito: mitochondrial protein.

NOX4 mRNA = NOX4 mRNA expression in mouse primary endothelial cells under high glucose (Realtime PCR); assay type: cell-based; conditions: FIG. 9
Text: The detection method of Western Blot and mRNA used in the present embodiment is a detection method commonly used by person skilled in the art, and the specific detection method is described in “Molecular Biology Laboratory Manual” (People's Military Medical Press, published in 2011 Jun. 1). 3.2 Western blot and Realtime PCR confirmed that ATG could inhibit the overexpression of NOX4 in mouse's primary endothelial cells. The dose of 1 and 10 μmol/L corresponds to the last two bands.

NOX = assay: NOX-related ROS induced by high glucose (NADPH oxidative activity, luminescence); assay type: cell-based, human
Experimental: The human immortal podocytes were divided into 6 groups: blank group, high glucose group (30 mM), high glucose+10 μMATG, high glucose+20 μMATG, high glucose+50 μMATG, high glucose+100 μMATG.
The effects of ATG on NOX producing ROS were observed by measuring the oxidative activity of NADPH (reduced coenzyme II): The […] were washed twice with HBSS (Hanks balanced salt solution), during which the cell culture dish was placed on ice. The cells were scraped with frozen HBSS containing protease inhibitors, then homogenated. The protein concentration was measured and calculated. 30 μg protein was added to each well and 25 μM […] (Santa Cruz) and 200 μM NADPH (Cayman Chemical) were also added. After staying in the dark room for 10 minutes at 37° C., the luminescence of each well was measured. Results: There was significant difference of ROS between high glucose group and normal group (P<0.05). The different concentration of ATG (10 μM, 20 μM, 50 μM, 100 μM) could reduce the amount of ROS induced by NOX. See Table 7 and FIG. 10 for the details.

[3] = ATG 300 μM, pronase 1:1000, PP2AB_HUMAN

T1 sequence (P62714 whole entry, canonical isoform): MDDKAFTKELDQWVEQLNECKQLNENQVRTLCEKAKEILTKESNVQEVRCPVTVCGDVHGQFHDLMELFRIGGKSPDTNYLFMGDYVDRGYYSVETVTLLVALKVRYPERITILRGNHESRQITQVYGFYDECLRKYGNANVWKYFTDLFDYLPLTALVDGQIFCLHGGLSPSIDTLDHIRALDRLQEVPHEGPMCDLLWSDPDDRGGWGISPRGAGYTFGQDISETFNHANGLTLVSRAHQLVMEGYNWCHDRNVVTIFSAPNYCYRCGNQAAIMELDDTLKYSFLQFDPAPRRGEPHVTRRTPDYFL

Ratio (ATG/DMSO) [1, 3]: 7.8
Spectral Count (ATG) [1, 3]: 14
binding ratio of ATG and PP2A ([1]; conclusion from mass spectrometry): high
Ratio (ATG/DMSO) (Tubulin beta-3 chain): 25.6
Spectral Count (ATG) (Tubulin beta-3 chain): 49
Ratio (ATG/DMSO) (Tubulin beta-6 chain): 13.6
Spectral Count (ATG) (Tubulin beta-6 chain): 25
Ratio (ATG/DMSO) [2]: 4.7
Spectral Count (ATG) [2]: 7
SMILES: COc1cc(C[C@H]2C(=O)OC[C@@H]2Cc2ccc(OC)c(OC)c2)ccc1O [ATG, Arctigenin]
activity of PP2A, dependence on concentration (PP2A; ATG 0 to 10 μm): increased with the increase of ATG concentration
PP2A activity values, mean (PP2A; ATG 1.0 μm): 0.0268
PP2A activity values, mean (PP2A; ATG 3.3 μm): 0.0279
PP2A activity values, mean (PP2A; ATG 10 μm): 0.0484
T-NOX4/β-actin mean (NOX4; High glucose-ATG, total protein, podocytes): 1.13
expression of NOX4 in total protein, membrane protein and mitochondrial protein (NOX4; high glucose, FIG. 6): can inhibit the expression of NOX4 in the above three kinds of structures
overexpression of NOX4 mRNA induced by high glucose (NOX4 mRNA): inhibited the overexpression of NOX4 mRNA
NOX-related ROS (luminescence), mean (NOX; HG + 10 μM ATG): 1030
NOX-related ROS (luminescence), mean (NOX; HG + 20 μM ATG): 864
NOX-related ROS (luminescence), mean (NOX; HG + 50 μM ATG): 794
NOX-related ROS (luminescence), mean (NOX; HG + 100 μM ATG): 832

— patent US9994533B2, “Method of preparing ATG's analogue, and the application of ATG and it's analogue” (Longhua Hospital Shanghai University of Traditional Chinese …, priority 2016, dated 2018)
